# Reference: paper PMC6412019, “Discovery of NV-5138, the first selective Brain mTORC1 activator” (Scientific Reports, 2019)
# Entries after “also recorded” stand apart in the source; their conditions may differ.
# Key:
# [1] = molecular target: T1, Sestrin2 (Homo sapiens, UniProt P58004); experiment: Cellular thermal shift assay (CETSA), intracellular Sestrin2 in HEK-293T cells; format: cell-based; settings: 30 min, leucine-starved HEK293T cells, read-out: increase of melting temperature of intracellular Sestrin2
# T1 sequence (P58004 1-480): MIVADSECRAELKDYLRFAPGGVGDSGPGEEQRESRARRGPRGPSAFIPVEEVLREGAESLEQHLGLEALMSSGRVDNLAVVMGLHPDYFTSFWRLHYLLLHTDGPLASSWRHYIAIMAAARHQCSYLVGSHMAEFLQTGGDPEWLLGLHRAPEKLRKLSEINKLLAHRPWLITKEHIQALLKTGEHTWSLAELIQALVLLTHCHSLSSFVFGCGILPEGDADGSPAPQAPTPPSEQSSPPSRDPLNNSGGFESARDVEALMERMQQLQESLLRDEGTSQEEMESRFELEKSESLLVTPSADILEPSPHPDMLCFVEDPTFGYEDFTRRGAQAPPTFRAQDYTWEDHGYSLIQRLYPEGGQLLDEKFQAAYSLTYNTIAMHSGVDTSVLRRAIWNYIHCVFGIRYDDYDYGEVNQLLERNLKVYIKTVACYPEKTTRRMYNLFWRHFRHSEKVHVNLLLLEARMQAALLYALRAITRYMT
# Protocol: (§1) Expression of flag-WDR24 allows for immunoprecipitation of the Sestrin2/GATOR2 complex from amino acid-starved cells with an anti-flag antibody. […] Finally, to determine whether Sestrins and the GATOR pathway are required for NV-5138 activity, HEK-293T cells null for all three Sestrin isoforms or the GATOR1 component Nprl3 were obtained.
# (§2) CETSA was performed as previously described. […] Cells were then collected, centrifuged for 3 min at 300 g at room-temperature (RT), washed with PBS, centrifuged again, and finally resuspended in 1 ml of RT PBS containing EDTA-free protease-inhibitor tablets (Roche). 100 µl of each cell suspension was heated at the noted temperature for 3 min, samples were then placed on the bench at RT for 3 min before being flash-frozen in liquid nitrogen. To lyse the cells, samples were put through two cycles of freeze-thawing followed by centrifugation at 20,000 g for 20 min at 4 °C. 80 µl of the resulting supernatant was denatured and, resolved by SDS-PAGE. Membranes were imaged using the LI-COR imaging system. Antibodies used are listed in Supplementary Information.
# [2] = molecular target: T2, BCAT2 (Homo sapiens, UniProt O15382); experiment: BCAT enzymatic assay (substrate test), BCAT2; format: biochemical; settings: NADH oxidation at 340 nm; tested up to 1.5 mM
# T2 construct: purchased OriGene TP300625
# T2 sequence (O15382 28-392): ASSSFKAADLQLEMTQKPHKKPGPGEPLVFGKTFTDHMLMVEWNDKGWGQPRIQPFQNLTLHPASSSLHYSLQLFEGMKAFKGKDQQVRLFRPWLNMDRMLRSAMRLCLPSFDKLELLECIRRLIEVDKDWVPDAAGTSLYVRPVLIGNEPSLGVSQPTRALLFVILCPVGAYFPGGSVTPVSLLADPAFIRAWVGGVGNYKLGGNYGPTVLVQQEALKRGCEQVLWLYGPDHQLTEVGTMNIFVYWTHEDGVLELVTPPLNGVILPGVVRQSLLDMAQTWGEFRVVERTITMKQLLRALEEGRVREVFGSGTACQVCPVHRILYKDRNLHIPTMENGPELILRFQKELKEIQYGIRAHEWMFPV
# Protocol: BCAT exists in two isoforms, mitochondrial BCAT2 which is ubiquitously expressed, and cytosolic BCAT1, which is predominantly expressed in embryonic tissues and the adult brain. To determine whether NV-5138 is a substrate for BCAT isoforms, we established an in vitro enzymatic assay using purified BCAT1 and BCAT2 and performed the assay in the forward direction as described. […] The disappearance of absorbance at 340 nm due to NADH oxidation is measured continuously over time.
# The assay buffer was dispensed into a 96-well plate and brought up to 37 °C for 10 min before adding BCAT1 or BCAT2 (72 ng) in 0.1 M potassium phosphate buffer. Absorbance at 340 nm was then read every minute for 30 min at RT using an Envision plate reader. Source of each reagents used can be found in Supplementary Information.
# [3] = molecular target: T3, Sestrin3 (Homo sapiens, UniProt P58005); experiment: Cellular thermal shift assay (CETSA), intracellular Sestrin3 in HEK-293T cells; format: cell-based; settings: 300 µM, 30 min, leucine-starved HEK293T cells
# T3 construct: endogenous in cells; host or cells: HEK-293T
# T3 sequence (P58005 1-492): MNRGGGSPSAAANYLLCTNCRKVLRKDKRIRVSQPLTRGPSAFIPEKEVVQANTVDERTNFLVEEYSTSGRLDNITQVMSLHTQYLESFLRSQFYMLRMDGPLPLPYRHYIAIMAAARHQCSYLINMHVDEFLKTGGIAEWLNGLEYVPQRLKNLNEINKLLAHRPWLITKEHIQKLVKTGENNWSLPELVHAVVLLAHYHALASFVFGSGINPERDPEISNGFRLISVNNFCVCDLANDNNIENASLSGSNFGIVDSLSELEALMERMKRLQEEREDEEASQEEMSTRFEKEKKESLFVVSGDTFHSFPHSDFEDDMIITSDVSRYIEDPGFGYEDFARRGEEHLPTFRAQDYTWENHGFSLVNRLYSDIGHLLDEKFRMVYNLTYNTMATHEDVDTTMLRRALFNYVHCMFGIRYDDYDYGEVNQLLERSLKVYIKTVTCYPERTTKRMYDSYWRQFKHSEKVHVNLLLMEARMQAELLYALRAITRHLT
# Protocol: as §1, §2
# [4] = test system: mTORC1; experiment: mTORC1 activation in rat brain after oral dosing (phosphorylated S6 S240/244 immunoblot); format: in vivo; settings: for mTORC1 activation in brain (pS6 increase): 1 h after single oral dose, NV-5138 160 mg/kg, leucine 500 mg/kg; for increase in S240/244 pS6 versus vehicle: synaptoneurosomes from pre-frontal cortex
# Excerpt: Given the favorable PK properties of NV-5138, we wished to determine whether oral administration of NV-5138 could activate mTORC1 in the brain and other organs of ad libitum fed rats using the mTORC1 downstream substrate phosphorylated S6 (^S240/244pS6) as a surrogate PD parameter for the activation status of the complex.
# After compound administration, animals were sacrificed by decapitation using a guillotine, immediately Specific regions of the brain were quickly microdissected, tissues collected, and flash frozen in liquid nitrogen. Peripheral tissues and all brain were homogenized using MP homogenizer in Lysis Buffer (Cell lysis buffer: 1% Triton X-100, 50 mM HEPES pH 7.4, 100 mM NaCl, 2 mM EDTA, 10 mM Beta-glycerophosphate, 10 mM Sodium pyrophosphate, and 1 protease inhibitor) at 4 °C. Synaptic proteins and mTORC1 analyses in each brain region were conducted on crude synaptoneurosome preparations as previously described. Equal amounts of total protein from each sample were denatured and, resolved by SDS-PAGE. Membranes were imaged using the LI-COR imaging system. Proteins levels are normalized to tubulin or GAPDH levels and further normalized to vehicle treated rats for each tissue. Antibodies used are listed in Supplementary Information.
# [5] = 160 mg/kg PO, 1 h, synaptoneurosomes
Compound,ΔTm at 300 µM [1] [°C],transamination by BCAT2 [2],change of melting temperature of intracellular Sestrin3 [3],mTORC1 activation in brain (pS6 increase) ([4]; ad libitum fed rats),"mTORC1 activation in cerebellum [4, 5]","mTORC1 activation in striatum, hippocampus, neocortex [4, 5]",time of peak mTORC1 activation in brain ([4]; single 160 mg/kg PO),time until mTORC1 activation back to baseline/vehicle levels ([4]; single 160 mg/kg PO) [h],increase in S240/244 pS6 versus vehicle ([4]; 1 h after 80 mg/kg PO),"increase in S240/244 pS6 versus vehicle ([4]; 1 h after 160 mg/kg PO, ad libitum fed rats)"
"CC(C)C[C@H](N)C(=O)O [Leucine, L-leucine, reference compound]",~2,transaminated by BCAT1 and BCAT2,neither NV-5138 nor leucine changed the melting temperature,no activation,–,–,–,–,–,–
"CC(C)(C[C@H](N)C(=O)O)C(F)F [NV-5138, (S)-2-amino-5,5-difluoro-4,4-dimethylpentanoic acid]",~2,no decrease in absorption at 340 nm; also recorded: did not observe any transamination,neither NV-5138 nor leucine changed the melting temperature; also recorded: does not impact the melting temperature,~ 2 fold,but not the cerebellum,significant activation,~ 3 h,≤ 7,trending increase,~ 2 fold
